Measurements published in paper PMC5039751, “Profiling of core fucosylated N-glycans using a novel bacterial lectin that specifically recognizes α1,6 fucosylated chitobiose” (Scientific Reports, 2016).

Key:
[1] = target: T1, SL2-1 (Streptomyces rapamycinicus, UniProt A0ABR6LWE4); assay: isothermal titration calorimetry; format: binding; conditions: 20 mM sodium phosphate pH 7.4, 25 °C
T1 construct: gene BJY27_006859; monomer with three ~40-residue repeats
T1 sequence (A0ABR6LWE4 31-188): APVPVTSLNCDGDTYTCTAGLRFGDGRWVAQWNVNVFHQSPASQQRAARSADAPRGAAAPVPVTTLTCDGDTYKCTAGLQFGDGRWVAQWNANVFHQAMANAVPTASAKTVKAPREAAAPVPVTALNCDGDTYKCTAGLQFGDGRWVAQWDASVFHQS
Text: isothermal titration calorimetry on SL2-1

[2] = target: T1, SL2-1; assay: lectin capture in Microcon-30 filter, UPLC-HILIC-FLR; format: binding; conditions: labelled compound (2-AB); mixture of four glycans, 4 pmol each, 20 μg SL2-1, 10 mM Tris-HCl pH 8.0, room temperature; proteinase K elution

Row | % of total loaded recovered from lectin-bound fraction [2] | SMILES | also measured
1 |  | CC(=O)N[C@H]1[C@H](O[C@H]2[C@H](O)[C@@H](NC(C)=O)C(O)O[C@@H]2CO[C@@H]2O[C@@H](C)[C@@H](O)[C@@H](O)[C@@H]2O)O[C@H](CO)[C@@H](O)[C@@H]1O (stereo partly drawn) [N2F, α1-6 fucosylated chitobiose] | Kd ([1]; n = 2.01): 1590 nM
2 | 95% | CC(=O)N[C@H]1[C@H](O[C@@H]([C@H](O)[C@H](CNc2ccccc2C(N)=O)NC(C)=O)[C@H](O)CO[C@@H]2O[C@@H](C)[C@@H](O)[C@@H](O)[C@@H]2O)O[C@H](CO)[C@@H](O[C@@H]2O[C@H](CO[C@H]3O[C@H](CO)[C@@H](O)[C@H](O)[C@@H]3O[C@@H]3O[C@H](CO)[C@@H](O[C@@H]4O[C@H](CO)[C@H](O)[C@H](O)[C@H]4O)[C@H](O)[C@H]3NC(C)=O)[C@@H](O)[C@H](O[C@H]3O[C@H](CO)[C@@H](O)[C@H](O)[C@@H]3O[C@@H]3O[C@H](CO)[C@@H](O[C@@H]4O[C@H](CO)[C@H](O)[C@H](O)[C@H]4O)[C@H](O)[C@H]3NC(C)=O)[C@@H]2O)[C@@H]1O [NA2F, 2-aminobenzamide (2-AB)-labeled asialo-, galactosylated biantennary N-glycan with core α1-6 fucose] | 
3 | 91% | CC(=O)N[C@H]1[C@H](O[C@@H]([C@H](O)[C@H](CNc2ccccc2C(N)=O)NC(C)=O)[C@H](O)CO[C@@H]2O[C@@H](C)[C@@H](O)[C@@H](O)[C@@H]2O)O[C@H](CO)[C@@H](O[C@@H]2O[C@H](CO[C@H]3O[C@H](CO)[C@@H](O)[C@H](O)[C@@H]3O)[C@@H](O)[C@H](O[C@H]3O[C@H](CO)[C@@H](O)[C@H](O)[C@@H]3O)[C@@H]2O)[C@@H]1O [M3N2F, 2-aminobenzamide (2-AB)-labeled trimannosyl core N-glycan (paucimannose) with core α1-6 fucose] | 
4 |  | CC(=O)N[C@H]1[C@H](O[C@H]2[C@H](O)[C@@H](NC(C)=O)C(O)O[C@@H]2CO[C@@H]2O[C@@H](C)[C@@H](O)[C@@H](O)[C@@H]2O)O[C@H](CO)[C@@H](O[C@@H]2O[C@H](CO[C@H]3O[C@H](CO)[C@@H](O)[C@H](O)[C@@H]3O[C@@H]3O[C@H](CO)[C@@H](O[C@@H]4O[C@H](CO[C@]5(C(=O)O)C[C@H](O)[C@@H](NC(C)=O)[C@H]([C@H](O)[C@H](O)CO)O5)[C@H](O)[C@H](O)[C@H]4O)[C@H](O)[C@H]3NC(C)=O)[C@@H](O)[C@H](O[C@H]3O[C@H](CO)[C@@H](O)[C@H](O)[C@@H]3O[C@@H]3O[C@H](CO)[C@@H](O[C@@H]4O[C@H](CO)[C@H](O)[C@H](O)[C@H]4O)[C@H](O)[C@H]3NC(C)=O)[C@@H]2O)[C@@H]1O (stereo partly shown) [A1F, monosialo-fucosylated biantennary N-glycan] | Kd ([1]; n = 1.85): 1060 nM
